PMC12749811 (Nature Communications, 2025)

Experiments:
Cal09-WT virus [1] = assay type: cell-based, influenza A(H1N1)pdm09 virus A/California/07/2009
[2] = test system: A/Sichuan-Shunqing/SWL11211/2023; assay type: cell-based, influenza A(H1N1)pdm09 virus
Cal09-WT virus [3] = assay type: cell-based, influenza A(H1N1)pdm09 virus A/California/07/2009; remark: listed apart in the source
[4] = in vivo; cited from earlier work
[5] = test system: A/Fujian-Licheng/SWL1661/2023; assay type: cell-based, influenza A(H1N1)pdm09 virus

Compound: O=C1c2c(O)c(=O)ccn2N([C@@H]2c3ccccc3SCc3c2ccc(F)c3F)[C@@H]2COCCN12 [baloxavir]
- sensitivity in plaque-reduction assay (Cal09-WT virus [1]): remained high sensitivity

Compound: CCOC(=O)C1=C[C@@H](OC(CC)CC)[C@H](NC(C)=O)[C@@H](N)C1 [oseltamivir]
- oseltamivir sensitivity [2]: remained oseltamivir-sensitive
- concentration at which virus replication was significantly inhibited (Cal09-WT virus [3]): 0.1 µM
- average plasma concentration [4]: 0.33 µM
- oseltamivir sensitivity [5]: remained oseltamivir-sensitive
- concentration at which plaque diameters were inhibited (Cal09-WT virus [1]): 0.01 µM

Compound: CCC(CC)[C@H](NC(C)=O)[C@@H]1[C@H](O)[C@@H](C(=O)O)C[C@H]1N=C(N)N [peramivir]
- sensitivity in plaque-reduction assay (Cal09-WT virus [1]): remained fully sensitive

Compound: CC(=O)N[C@H]1[C@H]([C@H](O)[C@H](O)CO)OC(C(=O)O)=C[C@@H]1N=C(N)N [zanamivir]
- sensitivity in plaque-reduction assay (Cal09-WT virus [1]): remained fully sensitive
